Source: PubChem BioAssay AID1259407 (Chemical Carcinogenesis Research Information System (CCRIS), 2018)
The source made the active and inactive calls. No rule for the calls is given here.

Test system: CCRIS mutagenicity, Ames/micronucleus/aberration tests
Test: CCRIS mutagenicity studies

Measured: mutagenic call

O=C([O-])c1ccccn1.O=C([O-])c1ccccn1.O=C([O-])c1ccccn1.[Cr+3]
active: Test System: CHINESE HAMSTER OVARY CELLS, Strain/Indicator: CHO CELLS (HPRT)/6-THIOGUANINE, Metabolic Activation: NONE, Method: STANDARD PLATE active; positive
inactive: End Point: In vivo chromosomal aberrations, Test System: Bone marrow cells, Species: Rat, Strain/Sex: Sprague-Dawley/Male and female, Route: Oral (gavage) once inactive; negative | End Point: In vivo micronucleus, Test System: Bone marrow polychromatic erythrocytes, Species: Rat, Strain/Sex: F344/N / Male, Route: Oral inactive; negative | Test System: AMES SALMONELLA TYPHIMURIUM, Strain/Indicator: TA98, Metabolic Activation: HAMSTER LIVER S-9, AROCLOR 1254, Method: STANDARD PLATE inactive; negative | Test System: AMES SALMONELLA TYPHIMURIUM, Strain/Indicator: TA98, Metabolic Activation: HAMSTER, LIVER, S-9, AROCLOR 1254, Method: STANDARD PLATE inactive; negative | Test System: AMES SALMONELLA TYPHIMURIUM, Strain/Indicator: TA98, Metabolic Activation: NONE, Method: STANDARD PLATE inactive; negative | Test System: AMES SALMONELLA TYPHIMURIUM, Strain/Indicator: TA98, Metabolic Activation: RAT LIVER S-9, AROCLOR 1254, Method: STANDARD PLATE inactive; negative | Test System: AMES SALMONELLA TYPHIMURIUM, Strain/Indicator: TA98, Metabolic Activation: RAT, LIVER, S-9, AROCLOR 1254, Method: STANDARD PLATE inactive; negative | Test System: AMES SALMONELLA TYPHIMURIUM, Strain/Indicator: TA100, Metabolic Activation: HAMSTER LIVER S-9, AROCLOR 1254, Method: STANDARD PLATE inactive; negative | Test System: AMES SALMONELLA TYPHIMURIUM, Strain/Indicator: TA100, Metabolic Activation: HAMSTER, LIVER, S-9, AROCLOR 1254, Method: STANDARD PLATE inactive; negative | Test System: AMES SALMONELLA TYPHIMURIUM, Strain/Indicator: TA100, Metabolic Activation: NONE, Method: STANDARD PLATE inactive; negative | Test System: AMES SALMONELLA TYPHIMURIUM, Strain/Indicator: TA100, Metabolic Activation: RAT LIVER S-9, AROCLOR 1254, Method: STANDARD PLATE inactive; negative | Test System: AMES SALMONELLA TYPHIMURIUM, Strain/Indicator: TA100, Metabolic Activation: RAT, LIVER, S-9, AROCLOR 1254, Method: STANDARD PLATE inactive; negative | Test System: AMES SALMONELLA TYPHIMURIUM, Strain/Indicator: TA102, Metabolic Activation: HAMSTER LIVER S-9, AROCLOR 1254, Method: STANDARD PLATE inactive; negative | Test System: AMES SALMONELLA TYPHIMURIUM, Strain/Indicator: TA102, Metabolic Activation: NONE, Method: STANDARD PLATE inactive; negative | Test System: AMES SALMONELLA TYPHIMURIUM, Strain/Indicator: TA102, Metabolic Activation: RAT LIVER S-9, AROCLOR 1254, Method: STANDARD PLATE inactive; negative | Test System: AMES SALMONELLA TYPHIMURIUM, Strain/Indicator: TA1535, Metabolic Activation: HAMSTER LIVER S-9, AROCLOR 1254, Method: STANDARD PLATE inactive; negative | Test System: AMES SALMONELLA TYPHIMURIUM, Strain/Indicator: TA1535, Metabolic Activation: HAMSTER, LIVER, S-9, AROCLOR 1254, Method: STANDARD PLATE inactive; negative | Test System: AMES SALMONELLA TYPHIMURIUM, Strain/Indicator: TA1535, Metabolic Activation: NONE, Method: STANDARD PLATE inactive; negative | Test System: AMES SALMONELLA TYPHIMURIUM, Strain/Indicator: TA1535, Metabolic Activation: RAT LIVER S-9, AROCLOR 1254, Method: STANDARD PLATE inactive; negative | Test System: AMES SALMONELLA TYPHIMURIUM, Strain/Indicator: TA1535, Metabolic Activation: RAT, LIVER, S-9, AROCLOR 1254, Method: STANDARD PLATE inactive; negative | Test System: AMES SALMONELLA TYPHIMURIUM, Strain/Indicator: TA1537, Metabolic Activation: HAMSTER LIVER S-9, AROCLOR 1254, Method: STANDARD PLATE inactive; negative | Test System: AMES SALMONELLA TYPHIMURIUM, Strain/Indicator: TA1537, Metabolic Activation: HAMSTER, LIVER, S-9, AROCLOR 1254, Method: STANDARD PLATE inactive; negative | Test System: AMES SALMONELLA TYPHIMURIUM, Strain/Indicator: TA1537, Metabolic Activation: NONE, Method: STANDARD PLATE inactive; negative | Test System: AMES SALMONELLA TYPHIMURIUM, Strain/Indicator: TA1537, Metabolic Activation: RAT LIVER S-9, AROCLOR 1254, Method: STANDARD PLATE inactive; negative | Test System: AMES SALMONELLA TYPHIMURIUM, Strain/Indicator: TA1537, Metabolic Activation: RAT, LIVER, S-9, AROCLOR 1254, Method: STANDARD PLATE inactive; negative | Test System: Ames Salmonella typhimurium, Strain/Indicator: TA97, Metabolic Activation: Hamster, Liver, S-9, Aroclor 1254 (10 and 30%), Method: Preincubation inactive; negative | Test System: Ames Salmonella typhimurium, Strain/Indicator: TA97, Metabolic Activation: None, Method: Preincubation inactive; negative | Test System: Ames Salmonella typhimurium, Strain/Indicator: TA97, Metabolic Activation: Rat, Liver, S-9, Aroclor 1254 (10 and 30%), Method: Preincubation inactive; negative | Test System: Ames Salmonella typhimurium, Strain/Indicator: TA98, Metabolic Activation: Hamster, Liver, S-9, Aroclor 1254 (10 and 30%), Method: Preincubation inactive; negative | Test System: Ames Salmonella typhimurium, Strain/Indicator: TA98, Metabolic Activation: None, Method: Preincubation inactive; negative | Test System: Ames Salmonella typhimurium, Strain/Indicator: TA98, Metabolic Activation: Rat, Liver, S-9, Aroclor 1254 (10 and 30%), Method: Preincubation inactive; negative | Test System: Ames Salmonella typhimurium, Strain/Indicator: TA100, Metabolic Activation: Hamster, Liver, S-9, Aroclor 1254 (10 and 30%), Method: Preincubation inactive; negative | Test System: Ames Salmonella typhimurium, Strain/Indicator: TA100, Metabolic Activation: None, Method: Preincubation inactive; negative | Test System: Ames Salmonella typhimurium, Strain/Indicator: TA100, Metabolic Activation: Rat, Liver, S-9, Aroclor 1254 (10 and 30%), Method: Preincubation inactive; negative | Test System: Ames Salmonella typhimurium, Strain/Indicator: TA102, Metabolic Activation: Hamster, Liver, S-9, Aroclor 1254 (10 and 30%), Method: Preincubation inactive; negative | Test System: Ames Salmonella typhimurium, Strain/Indicator: TA102, Metabolic Activation: Hamster, Liver, S-9, Aroclor 1254 (30%), Method: Preincubation inactive; negative | Test System: Ames Salmonella typhimurium, Strain/Indicator: TA102, Metabolic Activation: None, Method: Preincubation inactive; negative | Test System: Ames Salmonella typhimurium, Strain/Indicator: TA102, Metabolic Activation: Rat, Liver, S-9, Aroclor 1254 (10 and 30%), Method: Preincubation inactive; negative | Test System: Ames Salmonella typhimurium, Strain/Indicator: TA102, Metabolic Activation: Rat, Liver, S-9, Aroclor 1254 (30%), Method: Preincubation inactive; negative | Test System: Ames Salmonella typhimurium, Strain/Indicator: TA104, Metabolic Activation: Hamster, Liver, S-9, Aroclor 1254 (10 and 30%), Method: Preincubation inactive; negative | Test System: Ames Salmonella typhimurium, Strain/Indicator: TA104, Metabolic Activation: Hamster, Liver, S-9, Aroclor 1254 (30%), Method: Preincubation inactive; negative | Test System: Ames Salmonella typhimurium, Strain/Indicator: TA104, Metabolic Activation: None, Method: Preincubation inactive; negative | Test System: Ames Salmonella typhimurium, Strain/Indicator: TA104, Metabolic Activation: Rat, Liver, S-9, Aroclor 1254 (10 and 30%), Method: Preincubation inactive; negative | Test System: Ames Salmonella typhimurium, Strain/Indicator: TA104, Metabolic Activation: Rat, Liver, S-9, Aroclor 1254 (30%), Method: Preincubation inactive; negative | Test System: Ames Salmonella typhimurium, Strain/Indicator: TA1535, Metabolic Activation: Hamster, Liver, S-9, Aroclor 1254 (10 and 30%), Method: Preincubation inactive; negative | Test System: Ames Salmonella typhimurium, Strain/Indicator: TA1535, Metabolic Activation: None, Method: Preincubation inactive; negative | Test System: Ames Salmonella typhimurium, Strain/Indicator: TA1535, Metabolic Activation: Rat, Liver, S-9, Aroclor 1254 (10 and 30%), Method: Preincubation inactive; negative | Test System: CHINESE HAMSTER OVARY CELLS, Strain/Indicator: CHO-K1/HPRT/6-THIOGUANINE, Metabolic Activation: NONE, Method: 5 HR EXPOSURE inactive; negative | Test System: CHINESE HAMSTER OVARY CELLS, Strain/Indicator: CHO-K1/HPRT/6-THIOGUANINE, Metabolic Activation: NONE, Method: 48 HR EXPOSURE inactive; negative | Test System: CHINESE HAMSTER OVARY CELLS, Strain/Indicator: CHO-K1/HPRT/6-THIOGUANINE, Metabolic Activation: RAT, LIVER, S-9, AROCLOR 1254, Method: 5 HR EXPOSURE inactive; negative
